Measured values taken from article PMC4522903 (Chemical communications (Cambridge, England), 2015).

Biological target: T1, Atm1p (Saccharomyces cerevisiae, UniProt P40416)
T1 sequence (P40416 27-690): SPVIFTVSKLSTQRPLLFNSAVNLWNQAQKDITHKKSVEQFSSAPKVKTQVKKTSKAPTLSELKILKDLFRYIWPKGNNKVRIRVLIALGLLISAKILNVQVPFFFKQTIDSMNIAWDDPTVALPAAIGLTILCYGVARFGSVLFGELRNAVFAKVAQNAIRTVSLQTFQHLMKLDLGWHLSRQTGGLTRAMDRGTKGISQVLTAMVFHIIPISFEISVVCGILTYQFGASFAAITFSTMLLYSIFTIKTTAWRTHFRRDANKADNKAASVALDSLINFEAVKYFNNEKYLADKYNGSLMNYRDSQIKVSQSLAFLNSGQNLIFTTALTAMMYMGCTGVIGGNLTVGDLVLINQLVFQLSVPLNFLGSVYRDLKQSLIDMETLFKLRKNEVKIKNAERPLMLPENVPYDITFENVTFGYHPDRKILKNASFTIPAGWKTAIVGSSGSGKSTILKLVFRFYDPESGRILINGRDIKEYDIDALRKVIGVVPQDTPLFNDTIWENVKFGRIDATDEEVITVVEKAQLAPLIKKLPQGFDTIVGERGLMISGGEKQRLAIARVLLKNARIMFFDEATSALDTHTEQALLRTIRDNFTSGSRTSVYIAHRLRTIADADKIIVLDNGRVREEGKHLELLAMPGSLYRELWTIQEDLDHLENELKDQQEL
Assay: titration of labeled cluster to Atm1p
Assay type: binding
Details: labelled compound

Kd: 118 ± 11 µM
Substance: fluorescein-labeled glutathione [2Fe-2S] cluster
